# Reference: patent publication US11034718B2, “C-3 novel triterpenone with C-17 reverse amide derivatives as HIV inhibitors” (HETERO LABS LIMITED, priority 2015, dated 2021)
# Where a name gives a salt, the structure may show the parent alone. Read-outs that look alike come from different tables or passages of the source.
# System: HIV-1 strain 92HT599
# Assay: Antiviral activity against HIV-1 strain 92HT599 in MT2 cells (p24 estimation)
# Assay type: cell-based
# Conditions: HIV-1 92HT599, ~96 hours
# Method: Example 77: Evaluation of Compounds Antiviral Activity Against HIV-1 Strain 92HT599 in MT2 Cells
# MT2 cells were infected with HIV-1 strain 92HT599 (10 TCID 50/30000 cells). The infected cells were plated at the concentration of 30,000 cells per well in 96 well plate. Test compound was added to the micro plate in defined format with the final concentration of DMSO (vehicle) is not more than 1%. Incubation was carried out in CO2 incubator for ˜96 hours for viral infection. At the end of incubation period an aliquot from each well was taken for p24 estimation. The quantitation of p24 is an index for antiviral activity of the compound. Percent inhibition was calculated with reference to control values (vehicle controls). p24 estimation was carried out using Advance biosciences kit as per the procedure detailed by supplier.
# [1] = Human immunodeficiency virus 1, 0% serum binding assay, read-out: IC50 0% serum
# [2] = Human immunodeficiency virus 1, 40% serum binding assay, read-out: IC50 40% serum
SMILES,IC50 [1] [nM],IC50 [2] [nM]
"CC(C)C1=C2[C@H]3CC[C@@H]4[C@@]5(C)CC[C@H](OC(=O)[C@H]6C[C@@H](C(=O)O)C6(C)C)C(C)(C)[C@@H]5CC[C@@]4(C)[C@]3(C)CC[C@@]2(NC(=O)C(C)(C)NC(=O)c2ccoc2)CC1=O [Example 24, (1R,3S)-3-((((3aR,5aR,5bR,7aR,9S,11aR,11bR,13aS)-3a-(2-(furan-3-carboxamido)-2-methylpropanamido)-1-isopropyl-5a,5b, 8,8,11a-pentamethyl-2-oxo-3,3a,4,5,5a,5b,6,7,7a,8,9,10,11,11a,11b,12,13,13a-octadecahydro-2H-cyclopenta[a]chrysen-9-yl)oxy)carbonyl)-2,2-dimethylcyclobutane-1-carboxylic acid]",< 3,50 to 200
"CC(C)C1=C2[C@H]3CC[C@@H]4[C@@]5(C)CC[C@H](OC(=O)[C@H]6C[C@@H](C(=O)O)C6(C)C)C(C)(C)[C@@H]5CC[C@@]4(C)[C@]3(C)CC[C@@]2(NC(=O)C(C)(C)NC(=O)c2ccco2)CC1=O [Example 26, (1R,3S)-3-((((3aR,5aR,5bR,7aR,9S,11aR,11bR,13aS)-3a-(2-(furan-2-carboxamido)-2-methylpropanamido)-1-isopropyl-5a,5b,8,8,11a-pentamethyl-2-oxo-3,3a,4,5,5a,5b,6,7,7a,8,9,10,11,11a,11b,12,13,13a-octadecahydro-2H-cyclopenta[a]chrysen-9-yl)oxy)carbonyl)-2,2-dimethylcyclobutane-1-carboxylic acid]",< 3,50 to 200
"CC(C)C1=C2[C@H]3CC[C@@H]4[C@@]5(C)CC[C@H](OC(=O)[C@H]6C[C@@H](C(=O)O)C6(C)C)C(C)(C)[C@@H]5CC[C@@]4(C)[C@]3(C)CC[C@@]2(NC(=O)C(C)(C)NC(=O)C2(c3ccccc3)CCCC2)CC1=O [Example 27, (1R,3S)-3-((((3aR,5aR,5bR,7aR,9S,11aR,11bR,13aS)-1-isopropyl-5a,5b,8,8,11a-pentamethyl-3a-(2-methyl-2-(1-phenylcyclopentane-1-carboxamido)propanamido)-2-oxo-3,3a,4,5,5a,5b,6,7,7a,8,9,10,11,11a,11b,12,13,13a-octadecahydro-2H-cyclopenta[a]chrysen-9-yl)oxy)carbonyl)-2,2-dimethylcyclobutane-1-carboxylic acid]",3.01 to 10,50 to 200
"CC(C)C1=C2[C@H]3CC[C@@H]4[C@@]5(C)CC[C@H](OC(=O)[C@H]6C[C@@H](C(=O)O)C6(C)C)C(C)(C)[C@@H]5CC[C@@]4(C)[C@]3(C)CC[C@@]2(NC(=O)C(C)(C)NC(=O)C2CCNCC2)CC1=O [Example 35, (1R,3S)-3-((((3aR,5aR,5bR,7aR,9S,11aR,11bR,13aS)-1-isopropyl-5a,5b,8,8,11a-pentamethyl-3a-(2-methyl-2-(piperidine-4-carboxamido)propanamido)-2-oxo-3,3a,4,5,5a,5b,6,7,7a,8,9,10,11,11a,11b,12,13,13a-octadecahydro-2H-cyclopenta[a]chrysen-9-yl)oxy)carbonyl)-2,2-dimethylcyclobutane-1-carboxylic acid hydrochloride]",> 10,> 200
"CC(C)C1=C2[C@H]3CC[C@@H]4[C@@]5(C)CC[C@H](OC(=O)[C@H]6C[C@@H](C(=O)O)C6(C)C)C(C)(C)[C@@H]5CC[C@@]4(C)[C@]3(C)CC[C@@]2(NC(=O)C(C)(C)NC(=O)[C@@H](N)C(C)C)CC1=O [Example 36, (1R,3S)-3-((((3aR,5aR,5bR,7aR,9S,11aR,11bR,13aS)-3a-(2-((S)-2-amino-3-methylbutanamido)-2-methylpropanamido)-1-isopropyl-5a,5b,8,8,11a-pentamethyl-2-oxo-3,3a,4,5,5a,5b,6,7,7a,8,9,10,11,11a,11b,12,13,13a-octadecahydro-2H-cyclopenta[a]chrysen-9-yl)oxy)carbonyl)-2,2-dimethylcyclobutane-1-carboxylic acid hydrochloride]",< 3,50 to 200
